Assay results: ChEMBL document CHEMBL1144805, “The cephalostatin way of apoptosis” (2008)

How the values were obtained:
OVCAR-4 = assay: Cytotoxicity against human OVCAR4 cells; assay type: functional
CAKI-1 = assay: Cytotoxicity against human CAKI1 cells; assay type: functional
[1] = Cytotoxicity against human TK20 cells; assay type: functional
KM-20L2 = assay: Cytotoxicity against human KM20L2 cells; assay type: functional
SW-620 = assay: Cytotoxicity against human SW620 cells; assay type: functional
[2] = Cytotoxicity against human LXFL529 cells; assay type: functional; conditions: LXFL 529
SK-MEL-2 = assay: Cytotoxicity against human SK-MEL-2 cells; assay type: functional
NCI-H23 = assay: Cytotoxicity against human NCI-H23 cells; assay type: functional
BT-549 = assay: Cytotoxicity against human BT549 cells; assay type: functional
DU-145 = assay: Cytotoxicity against human DU145 cells; assay type: functional
OVCAR-8 = assay: Cytotoxicity against human OVCAR8 cells; assay type: functional
PC-3 = assay: Cytotoxicity against human PC3 cells; assay type: functional
MOLT-4 = assay: Cytotoxicity against human MOLT4 cells; assay type: functional
NCI-H522 = assay: Cytotoxicity against human NCI-H522 cells; assay type: functional
HCT-15 = assay: Cytotoxicity against human HCT15 cells; assay type: functional
SF-268 = assay: Cytotoxicity against human SF268 cells; assay type: functional
UO-31 = assay: Cytotoxicity against human UO31 cells; assay type: functional
[3] = Cytotoxicity against human DMS144 cells; assay type: functional
LOX IMVI = assay: Cytotoxicity against human LOXIMVI cells; assay type: functional
SK-OV-3 = assay: Cytotoxicity against human SK-OV-3 cells; assay type: functional
MDA-MB-435 = assay: Cytotoxicity against human MDA-MB-435 cells; assay type: functional
U-251 = assay: Cytotoxicity against human U251 cells; assay type: functional
NCI-H226 = assay: Cytotoxicity against human NCI-H226 cells; assay type: functional
EKVX = assay: Cytotoxicity against human EKVX cells; assay type: functional
[4] = Cytotoxicity against human […] cells; assay type: functional
NCI-H460 = assay: Cytotoxicity against human NCI-H460 cells; assay type: functional
SNB-78 = assay: Cytotoxicity against human SNB78 cells; assay type: functional
ACHN = assay: Cytotoxicity against human ACHN cells; assay type: functional
XF498 = assay: Cytotoxicity against human XF498 cells; assay type: functional
Hs-578T = assay: Cytotoxicity against human HS578T cells; assay type: functional
HOP-92 = assay: Cytotoxicity against human HOP92 cells; assay type: functional
SF-539 = assay: Cytotoxicity against human SF539 cells; assay type: functional
MDA-MB-231 = assay: Cytotoxicity against human MDA-MB-231 cells; assay type: functional
IGROV-1 = assay: Cytotoxicity against human IGROV1 cells; assay type: functional
M19-MEL = assay: Cytotoxicity against human M19-MEL cells; assay type: functional
A549 = assay: Cytotoxicity against human A549 cells; assay type: functional
SNB-75 = assay: Cytotoxicity against human SNB75 cells; assay type: functional
[5] = Cytotoxicity against human HL60(TB) cells; assay type: functional, HL-60(TB); conditions: HL-60
DLD-1 = assay: Cytotoxicity against human DLD1 cells; assay type: functional
DMS-273 = assay: Cytotoxicity against human DMS273 cells; assay type: functional
MDA-N = assay: Cytotoxicity against human MDAN cells; assay type: functional
HOP-18 = assay: Cytotoxicity against human HOP18 cells; assay type: functional
[6] = Cytotoxicity against human HCC2996 cells; assay type: functional
SK-MEL-5 = assay: Cytotoxicity against human SK-MEL-5 cells; assay type: functional
SF-295 = assay: Cytotoxicity against human SF295 cells; assay type: functional
SNB-19 = assay: Cytotoxicity against human SNB19 cells; assay type: functional
NCI/ADR-RES = assay: Cytotoxicity against human NCI/ADR-RES cells; assay type: functional
OVCAR-3 = assay: Cytotoxicity against human OVCAR-3 cells; assay type: functional
HOP-62 = assay: Cytotoxicity against human HOP62 cells; assay type: functional
HCT-116 = assay: Cytotoxicity against human HCT116 cells; assay type: functional
OVCAR-5 = assay: Cytotoxicity against human OVCAR5 cells; assay type: functional
MCF7 = assay: Cytotoxicity against human MCF7 cells; assay type: functional
KM12 = assay: Cytotoxicity against human KM12 cells; assay type: functional
M14 = assay: Cytotoxicity against human M14 cells; assay type: functional
SR = assay: Cytotoxicity against human SR cells; assay type: functional
HT-29 = assay: Cytotoxicity against human HT29 cells; assay type: functional
UACC-62 = assay: Cytotoxicity against human UACC62 cells; assay type: functional
[7] = Cytotoxicity against human 786-O cells; assay type: functional; conditions: 786-0
SK-MEL-28 = assay: Cytotoxicity against human SK-MEL-28 cells; assay type: functional
K562 = assay: Cytotoxicity against human K562 cells; assay type: functional
COLO 205 = assay: Cytotoxicity against human COLO205 cells; assay type: functional
[8] = Cytotoxicity against human RXF631 cells; assay type: functional; conditions: RXF 631
RXF 393 = assay: Cytotoxicity against human RXF393 cells; assay type: functional
T47D = assay: Cytotoxicity against human T47D cells; assay type: functional
SN12C = assay: Cytotoxicity against human SN12C cells; assay type: functional
RPMI-8226 = assay: Cytotoxicity against human RPMI8226 cells; assay type: functional
Malme-3M = assay: Cytotoxicity against human MALME3M cells; assay type: functional
CCRF-CEM = assay: Cytotoxicity against human CCRF-CEM cells; assay type: functional
UACC-257 = assay: Cytotoxicity against human UACC257 cells; assay type: functional
NCI-H322M = assay: Cytotoxicity against human NCI-H322M cells; assay type: functional

C[C@@H]1[C@]2(O[C@H]3C=C4[C@@H]5CC[C@H]6Cc7nc8c(nc7C[C@]6(C)[C@H]5C[C@@H](O)[C@]4(C)[C@]31O)C[C@@H]1CC[C@H]3C4=CC[C@@H]5[C@H](C)[C@@]6(OC[C@]45C(=O)C[C@@H]3[C@@]1(C)C8)OC(C)(C)C[C@H]6O)O[C@](C)(CO)C[C@H]2O [CEPHALOSTATIN 1]
GI50 (OVCAR-4): 38900 pM | GI50 (CAKI-1): 1550 pM | GI50 [1]: 33900 pM | GI50 (KM-20L2): 1200 pM | GI50 (SW-620): 977 pM | GI50 [2]: 331 pM | GI50 (SK-MEL-2): 1100 pM | GI50 (NCI-H23): 550000 pM | GI50 (BT-549): 759 pM | GI50 (DU-145): 53700 pM | GI50 (OVCAR-8): 60300 pM | GI50 (PC-3): 288 pM | GI50 (MOLT-4): 204 pM | GI50 (NCI-H522): 120000 pM | GI50 (HCT-15): 4070 pM | GI50 (SF-268): 1100 pM | GI50 (UO-31): 617 pM | GI50 [3]: 166 pM | GI50 (LOX IMVI): 324 pM | GI50 (SK-OV-3): 1020 pM | GI50 (MDA-MB-435): 813 pM | GI50 (U-251): 182 pM | GI50 (NCI-H226): 275000 pM | GI50 (EKVX): 5370 pM | GI50 [4]: 1410 pM | GI50 (NCI-H460): 269 pM | GI50 (SNB-78): 776 pM | GI50 (ACHN): 8130 pM | GI50 (XF498): 724 pM | GI50 (Hs-578T): 112 pM | GI50 (HOP-92): 661 pM | GI50 (SF-539): 151 pM | GI50 (MDA-MB-231): 1200 pM | GI50 (IGROV-1): 3980 pM | GI50 (M19-MEL): 617000 pM | GI50 (A549): 513 pM | GI50 (SNB-75): 100 pM | GI50 [5]: 355 pM | GI50 (DLD-1): 41700 pM | GI50 (DMS-273): 110 pM | GI50 (MDA-N): 1860 pM | GI50 (HOP-18): 72400 pM | GI50 [6]: 95500 pM | GI50 (SK-MEL-5): 2340 pM | GI50 (SF-295): 123 pM | GI50 (SNB-19): 4570 pM | GI50 (NCI/ADR-RES): 69200 pM | GI50 (OVCAR-3): 70800 pM | GI50 (HOP-62): 240 pM | GI50 (HCT-116): 692 pM | GI50 (OVCAR-5): 13200 pM | GI50 (MCF7): 355 pM | GI50 (KM12): 1860 pM | GI50 (M14): 955 pM | GI50 (SR): 209 pM | GI50 (HT-29): 2820 pM | GI50 (UACC-62): 316 pM | GI50 [7]: 170 pM | GI50 (SK-MEL-28): 617 pM | GI50 (K562): 617 pM | GI50 (COLO 205): 1550 pM | GI50 [8]: 309 pM | GI50 (RXF 393): 100 pM | GI50 (T47D): 245000 pM | GI50 (SN12C): 295000 pM | GI50 (RPMI-8226): 107 pM | GI50 (Malme-3M): 8130 pM | GI50 (CCRF-CEM): 309 pM | GI50 (UACC-257): 4270 pM | GI50 (NCI-H322M): 91200 pM

C[C@@H]1[C@]2(O[C@H]3C=C4[C@@H]5CC[C@H]6Cc7nc8c(nc7C[C@]6(C)[C@H]5C[C@@H](O)[C@]4(C)[C@]31O)C[C@@H]1CC[C@H]3C4=CC[C@@H]5[C@H](C)[C@@]6(OC[C@]45C(=O)C[C@]3(O)[C@@]1(C)C8)OC(C)(C)C[C@H]6O)O[C@](C)(CO)C[C@H]2O [CEPHALOSTATIN 2]
GI50 (OVCAR-4): 17000 pM | GI50 (CAKI-1): 575 pM | GI50 [1]: 20400 pM | GI50 (KM-20L2): 661 pM | GI50 (SW-620): 174 pM | GI50 [2]: 138 pM | GI50 (SK-MEL-2): 288 pM | GI50 (NCI-H23): 708 pM | GI50 (OVCAR-8): 200000 pM | GI50 (MOLT-4): 120 pM | GI50 (NCI-H522): 794 pM | GI50 (HCT-15): 2340 pM | GI50 (SF-268): 195 pM | GI50 (UO-31): 1180 pM | GI50 [3]: 110 pM | GI50 (LOX IMVI): 151 pM | GI50 (SK-OV-3): 457 pM | GI50 (U-251): 112 pM | GI50 (NCI-H226): 141 pM | GI50 (EKVX): 6170 pM | GI50 [4]: 339 pM | GI50 (NCI-H460): 126 pM | GI50 (SNB-78): 251 pM | GI50 (ACHN): 2570 pM | GI50 (XF498): 100 pM | GI50 (HOP-92): 105 pM | GI50 (SF-539): 100 pM | GI50 (IGROV-1): 2570 pM | GI50 (M19-MEL): 331000 pM | GI50 (A549): 295 pM | GI50 (SNB-75): 100 pM | GI50 [5]: 100 pM | GI50 (DLD-1): 70800 pM | GI50 (DMS-273): 100 pM | GI50 (HOP-18): 14400 pM | GI50 [6]: 74100 pM | GI50 (SK-MEL-5): 724 pM | GI50 (SF-295): 100 pM | GI50 (SNB-19): 2400 pM | GI50 (OVCAR-3): 347000 pM | GI50 (HOP-62): 105 pM | GI50 (HCT-116): 295 pM | GI50 (OVCAR-5): 14100 pM | GI50 (KM12): 372 pM | GI50 (M14): 219 pM | GI50 (SR): 135 pM | GI50 (HT-29): 912 pM | GI50 (UACC-62): 141 pM | GI50 [7]: 141 pM | GI50 (SK-MEL-28): 234 pM | GI50 (COLO 205): 617 pM | GI50 (RXF 393): 100 pM | GI50 (SN12C): 105000 pM | GI50 (RPMI-8226): 100 pM | GI50 (Malme-3M): 2950 pM | GI50 (CCRF-CEM): 126 pM | GI50 (UACC-257): 912 pM | GI50 (NCI-H322M): 28200 pM
